What is called logD is lipophilicity at a set pH, counting ionised and neutral species. Low readings indicate a more hydrophilic compound, high ones a more lipophilic compound. As usually defined, the logP is a log measure of how a compound divides between an organic and an aqueous phase. A lower logP goes with lower lipophilicity.

Structures are written as SMILES.

Consider 40 compounds from the SangsterLogP compilation.

Series [1] is described as follows: method code SF-RC, from DOI: 10.1002/jlcr.3239, PMID: 25359578. To be noted: pH 7.4.
Series [2] can be described thus: method code SF, from DOI: 10.1021/jm00169a014, PMID: 2362268. To be noted: pH 7.4.
The nature of series [3]: method code SF, from PMID: 3183.
The nature of series [4]: method code SF-LC/MS, from DOI: 10.1002/rcm.3594, PMID: 18543375. To be noted: pH 7.4.
Series [5] can be described thus: method code SF-AS, from PMID: 7306420. Particulars: pH 7.5.
Series [6] can be described thus: method code SF, from DOI: 10.1016/0014-2999(77)90010-3, PMID: 336381. Particulars: pH 9.8.
Experiment in series [7]: not given
The source holds these as a separate data set.

Series [8] can be described thus: from Letourneux, Y.; Sparfel, L.; Roussakis, C.; Piessard, S.; LeBaut, G. (1984). Pyrophthalones. VI. Derivatives of (N-alkyldihydro-1,4-pyridinyliden-4-yl)-2-indanedione-1,3. Search for antitumor …. Particulars: pH 7.4.
A short description of series [9]: method code SF-AS, from DOI: 10.1016/0014-2999(72)90235-x, PMID: 4113999.
The nature of series [10]: method code SF-AS, from DOI: 10.3109/00498258809055142, PMID: 3354228.
Series [11] can be described thus: method code SF-HPLC, from DOI: 10.1016/0378-5173(91)90409-h. Particulars: pH 7.4.
Experiment in series [12]: not given
This is another data set of the same source.

Experiment in series [13]: not given
This is another data set of the same source.

Experiment in series [14]: not given
This is another data set of the same source.

Experiment in series [15]: not given
This is another data set of the same source.

Experiment in series [16]: not given
The source holds these as a separate data set.

A short description of series [17]: method code SF, from DOI: 10.1016/j.bmcl.2013.12.011, PMID: 24342238.
The nature of series [18]: method code SF-RC, from DOI: 10.1016/j.nucmedbio.2013.04.008, PMID: 23731552. To be noted: pH 7.4.
Experiment in series [19]: not given
The source holds these as a separate data set.

Series [20] can be described thus: method code SF-HPLC, from DOI: 10.1016/j.ejps.2016.07.010, PMID: 27422078. Particulars: pH 7.4.
Series [21] can be described thus: method code SF-RC, from DOI: 10.1002/jlcr.3404, PMID: 27126914. Particulars: pH 7.4.
Series [22] can be described thus: from Courrière, P.; Paubel, J.P.; Nivière, P.; Foussard-Blaspin, O. (1978). Structure-activity study in a series of local anesthetic agents. I. Physicochemical properties and molecular orbital study. ….
A short description of series [23]: method code SF-AS, from DOI: 10.1081/jlc-120004751.
Experiment in series [24]: not given
The source holds these as a separate data set.

Series [25] in a line: method code SF-HPLC, from DOI: 10.1016/j.ijpharm.2014.07.033, PMID: 25079434. Particulars: pH 7.4.
Series [26] is described as follows: method code SF-AS, from PMID: 7271269. Particulars: pH 6.0.
The nature of series [27]: method code SF-RC, from DOI: 10.1016/j.nucmedbio.2006.10.003, PMID: 17210465. Particulars: pH 7.4.
Series [28] in a line: method code SF-RC, from PMID: 447850. Particulars: pH 7.4.
Experiment in series [29]: not given
The source holds these as a separate data set.

Experiment in series [30]: not given
This is another data set of the same source.

Series [31] in a line: method code SF-HPLC, from DOI: 10.1016/j.ejps.2006.07.007, PMID: 16997537. To be noted: pH 7.4.
Experiment in series [32]: not given
This is another data set of the same source.

Series [33] can be described thus: method code SF-RC, from DOI: 10.1016/j.nucmedbio.2009.01.009, PMID: 19423014. To be noted: pH 7.4.
Experiment in series [34]: not given
The source holds these as a separate data set.

Experiment in series [35]: not given
The source holds these as a separate data set.

Series [36] is described as follows: method code SF-RC, from DOI: 10.1016/j.nucmedbio.2008.04.004, PMID: 18589308. Particulars: pH 7.4.
Experiment in series [37]: not given
This is another data set of the same source.

Series [38] can be described thus: method code SF, from DOI: 10.1016/s0223-5234(00)80025-2, PMID: 11278041. Particulars: pH 7.4.
Series [39] is described as follows: method code SF-AS, from PMID: 7460030. To be noted: pH 7.3.

In the case of `O=C(NCCF)Nc1ccc(-c2nc(N3CC4CCC(C3)O4)c3cnn(CC(F)(F)F)c3n2)cc1`, in [1], the logD turned out to be 1.9. With `c1cc2ccc3ccc4ccc5ccc6ccc1c1c2c3c4c5c61`, the log partition coefficient (logP) is 7.64. Regarding `CC(=O)Oc1ccc(C(c2ccc(OC(C)=O)cc2)c2ccccn2)cc1`, the logD in [2] turned out to be 2.64. In series [3], `CCCCC(CC)CN1CN(CC(CC)CCCC)CC(C)(N)C1` (stereo not given) displayed a logP of 2.05.

In series [4], `COc1cc2c(c(OC)c1OC)-c1ccc(OC)c(=O)cc1[C@@H](NC(C)=O)CC2` gave a logD of 1.08. In turn, `CS(=O)(=O)c1ccc2c(c1)N(CCCN1CCC(C(N)=O)CC1)c1ccccc1S2` gave a logD in series [5] of 2.02. The compound `O=c1[nH]c2ccccc2n1C1CCN(C[C@@H](O)[C@@H]2COc3ccccc3O2)CC1` (relative stereo) had a logD in series [6] of 3.43. The compound `C[C@]12CC[C@H](O)C[C@H]1CC[C@@H]1[C@@H]2CC[C@]2(C)[C@@H](c3ccc(=O)oc3)CC[C@]12O` returned a lipophilicity (logP) in [7] of 3.34.

As to `CC1=CC(=C2C(=O)c3ccccc3C2=O)C=C(C)N1CCCNC(=O)N(CCCl)N=O`, the pH-dependent lipophilicity (logD) in series [8] stood at 2.84. In [9], `OCCN1CCN(CCC=C2c3ccccc3Sc3ccc(Cl)cc32)CC1` displayed a logP of 3.

`OCCN1CCN(CCCN2c3ccccc3C=Cc3ccccc32)CC1`: the logP in series [10] was found to be 3. In [11], `NC(=O)[C@@H]1CCCN1C(=O)[C@H](Cc1cn(C2OC(=O)c3ccccc32)cn1)NC(=O)[C@@H]1CCC(=O)N1` (stereo not given in full) came in with a pH-dependent lipophilicity (logD) of -1.25. `COc1cccc([C@H](O)C2CCN(CCc3ccc(F)cc3)CC2)c1OC` came in with a logP in series [12] of 3.8. The compound `FCCOc1ccc(CN2CCN(Cc3cc4ccccc4o3)CC2)cc1` came in with a lipophilicity (logP) in series [13] of 3.35.

In [14], `C=CCn1nc(-c2sc(NC(=O)C(C)(C)C)nc2C)cc1C(=O)NCc1ccccc1` showed a logP of 4.33. `Cc1cc(C(=O)Nc2ccc(-c3ccccc3S(N)(=O)=O)cc2)n(-c2ccc3onc(N)c3c2)n1`: the logP in series [15] was determined as 2.1. In series [16], `O=C1C(=O)c2ccccc2C(O)=C1C1CCC(c2ccc(Cl)cc2)CC1` (stereo not given) showed a lipophilicity (logP) of 5.07. With `CN(C)Cc1cc(C=CC(=O)C=C(O)C=Cc2ccc(O)c(N(C)C)c2)ccc1O`, in series [17], the lipophilicity (logP) turned out to be 3.48. In the case of `O=C(Nc1cccnn1)N1CCC(=Cc2cccc(Oc3ccc(C(F)(F)F)cn3)c2)CC1`, the logD in series [18] is 3.48. In turn, `c1cncc(-c2cnn3cc(-c4ccc(OCCN5CCCCC5)cc4)cnc23)c1` had a logP in [19] of 3.4. `Cc1cc(=O)c2c(O)cc(O)c(C3CCN(C)CC3OC(=O)c3ccccc3)c2o1` (stereo not given) showed a pH-dependent lipophilicity (logD) in series [20] of 2.33. Turning to `COc1ccc2c(C3=C(c4cn(C)c5ccc(I)cc45)C(=O)NC3=O)coc2c1`, the logD in series [21] was found to be 3.23.

For the compound `CCN(CC)CCCN(C(=O)Cc1ccccc1)c1c(C)cccc1C`, the log partition coefficient (logP) in series [22] came to 4.94. Consider `Cc1cn(C2CC(N=[N+]=[N-])C(COC(=O)C(=O)NC(Cc3c[nH]c4ccccc34)C(=O)O)O2)c(=O)[nH]c1=O` (stereo not given), for which the log partition coefficient (logP) in series [23] was 0.67.

For the compound `CN1CCc2cc(Cl)c(O)cc2[C@@H](c2ccc(SCc3ccccc3)cc2)C1`, the logP in series [24] was 3.78. In series [25], `CNC(=O)c1cccc2c(Nc3ccc(NS(C)(=O)=O)cc3OC)c3cccc(C)c3nc12` yielded a pH-dependent lipophilicity (logD) of 3.26. In series [26], `COCOC(=O)C1N2C(=O)C(N3C(=O)C(c4ccc(O)cc4)NC3(C)C)C2SC1(C)C` (stereo not given) gave a pH-dependent lipophilicity (logD) of 0.3. As for `CN(C)c1ccc(/C=C/c2ccc(OCCOCCOCCF)nc2)cc1`, the log distribution coefficient (logD) in series [27] turned out to be 3.22.

Regarding `C[C@]12CCC(=O)C=C1CC[C@@H]1[C@@H]2[C@@H](O)C[C@]2(C=O)[C@@H](C(=O)CO)CC[C@@H]12`, the logD in series [28] turned out to be 1.08. Regarding `COc1cc(C2c3cc4c(cc3C(O)C3COC(=O)C23)OCO4)cc(OC)c1OC` (stereo not given), the logP in series [29] amounted to 2.01.

`Oc1ccc2ccccc2c1/N=N/c1ccc(/N=N/c2ccccc2)cc1` displayed a logP in [30] of 2.11.

With `CCOC(=O)C1OC(Oc2cc3oc(-c4ccc(O)cc4)cc(=O)c3c(O)c2O)C(O)C(O)C1O` (stereo not given), the pH-dependent lipophilicity (logD) in series [31] turned out to be 2.37. Turning to `COc1cc2nc(N3CCN(C(=O)C4COc5ccccc5O4)CC3)nc(N)c2cc1OC` (stereo not given), the logP in series [32] was determined as 3.38. In the case of `CCCCOc1c(OC)ccc2cc(C(=O)NC3CCCCC3)c(=O)[nH]c12`, the pH-dependent lipophilicity (logD) in series [33] came to 3.9.

In the case of `CC(C)(C)CC(=O)N1CCC(N(c2ccc(C(F)(F)F)cc2)c2cccnc2)CC1`, the log partition coefficient (logP) in [34] is 4.2. With `CC(=O)O[C@]1(C(C)=O)CC[C@H]2[C@@H]3C[C@H](F)C4=CC(=O)CC[C@]4(C)[C@H]3CC[C@@]21C`, the logP in [35] was found to be 3.48. The compound `O=C(OC[C@@H]1O[C@H](n2cc(Br)c(=O)[nH]c2=O)[C@H](F)[C@H]1OC(=O)c1ccccc1)c1ccccc1` yielded a log distribution coefficient (logD) in series [36] of 3.95. `CN1CN(c2ccccc2)C2(CCN(CCCC(=O)c3ccc(I)s3)CC2)C1=O` displayed a log partition coefficient (logP) in series [37] of 3.14. Regarding `CC(C)Cc1ccc(C(C)C(=O)OCN2C(=O)C(=O)c3ccccc32)cc1` (stereo not given), in series [38], the pH-dependent lipophilicity (logD) is 4.23. As for `CCCCCOc1cccc(NC(=O)OC2CCCCC2)c1-n1ccnc1`, the logD in series [39] was determined as 3.38.
